{"source": "patent US9730890B2", "about": "“Bronchodilating beta-agonist compositions and methods” (Mylan Specialty L.P., priority 2003, dated 2017)", "experiment": "Decomposition rate constant (kobs) of formoterol in aqueous solution", "assay_type": "physicochemical", "conditions": "for rate constant (kobs) for decomposition: aqueous solution, 60° C., ionic strength 0.05", "source_text": "In the embodiments herein, the compositions have a pH of about 2.0 to about 8.0, or 2.0 to 8.0. In other embodiments, the compositions have a pH of about 4.0 to about 6.0, or 4.0 to 6.0. In other embodiments, the pH is about 4.5 to about 5.5, or 4.5 to 5.5. In certain of the above embodiments, the compositions are formulated at a pH of about 4, 4.4 or 4.6 up to about 5.5, 5.7 or 6; or 4, 4.4 or 4.6 up to 5.5, 5.7 or 6. In other embodiments, the pH is about 5.0, or 5.0. […] The rate constant (kobs) at 60° C. at a pH of 3, 4, 5 and 7 is approximately 0.62, 0.11, 0.044 and 0.55 day^-1, respectively.\nIn other of the above embodiments, the compositions further contain a buffer, including, but not limited to, citric acid/phosphate, acetate, barbital, borate, Britton-Robinson, cacodylate, citrate, collidine, formate, maleate, McIlvaine, phFosphate, Prideaux-Ward, succinate, citrate-phosphate-borate (Teorell-Stanhagen), veronal acetate, MES (2-(N-morpholino)ethanesulfonic acid), BIS-TRIS (bis(2-hydroxyethyl)imino-tris-(hydroxymethyl)methane), ADA (N-(2-acetamido)-2-iminodiacetic acid), ACES (N-(carbamoylmethyl)-2-aminoethanesulfonic acid), PIPES (piperazine-N,N′-bis(2-ethanesulfonic acid)), MOPSO (3-(N-morpholino)-2-hydroxypropanesulfonic acid), BISTRIS PROPANE (1,3-bis(tris(hydroxymethyl)methylamino)propane), BES (N,N-bis(2-hydroxyethyl)-2-aminoethanesulfonic acid), MOPS (3-(N-morpholino)propanesulfonic acid), TES (N-tris(hydroxymethyl)methyl-2-aminoethanesulfonic acid), HEPES (N-(2-hydroxyethyl)-piperazine-N′-(2-eth-anesulfonic acid), DIPSO (3-(N,N-bis(2-hydroxyethyl)amino)-2-hydroxypropan-esulfonic acid), MOBS (4-(N-morpholino)-butanesulfonic acid), TAPSO (3-(N-tris(hydroxymethyl)methylamino)-2-hydroxypropanesulfonic acid), TRIZMA® (tris(hydroxymethylaminomethane), HEPPSO(N-(2-hydroxyethyl)piperazine-N′-(2-hydroxypropanesulfonic acid), POPSO (piperazine-N,N′-bis(2-hydroxypropanesulfonic acid)), TEA (triethanolamine), EPPS (N-(2-hydroxyethyl)piperazine-N′-(3-propanesulfon-ic acid), TRICINE (N-tris(hydroxy-methyl)methylglycine), GLY-GLY (glycylglycine), BICINE (N,N-bis(2-hydroxyethyl)glycine), HEPBS (N-(2-hydroxyethyl)piperazine-N′-(4-butanesulfonic acid)), TAPS(N-tris(hydroxymethyl)methyl-3-aminopropanesulfonic acid), AMPD (2-amino-2-methyl-1,3-propanediol), and/or any other buffers known to those of skill in the art. In one embodiment, the buffer is citric acid/phosphate buffer, acetate buffer, citrate buffer or phosphate buffer. In another embodiment, the buffer is a citrate buffer (citric acid/sodium citrate). […] Buffer concentrations for use include from about 0 or 0.01 mM to about 150 mM, or 0 or 0.01 mM to 150 mM. In another embodiment, the buffer concentration is about 1 mM to about 20 mM, or 1 mM to 20 mM. In one embodiment, the buffer concentration is about 5 mM, or 5 mM. In other embodiments, the buffer concentration is about 1 mM to about 50 mM, or 1 mM to 50 mM. […] The particular buffer and buffer concentration of a given composition for long term storage provided herein may be determined empirically using standard stability assays well known to those of skill in the art (see, e.g., the Examples).\nIonic strengths of the compositions provided herein are from about 0 to about 0.4, or 0 to 0.4. […] The particular ionic strength of a given composition for long term storage provided herein may be determined empirically using standard stability assays well known to those of skill in the art (see, e.g., the Examples). […]"}
{"smiles": "COc1ccc(CC(C)NCC(O)c2ccc(O)c(NC=O)c2)cc1", "note": "(racemic) [formoterol, 2-hydroxy-5-((1RS)-1-hydroxy-2-(((1RS)-2-(p-methoxyphenyl)-1-methylethyl)amino)ethyl)formanilide]", "values": [{"measurement": "rate constant (kobs) for decomposition", "setting": "pH 3, buffer concentration 5 mM", "result": "approximately 0.62 day^-1"}, {"measurement": "rate constant (kobs) for decomposition", "setting": "pH 4, buffer concentration 5 mM", "result": "~0.11", "unit": "day⁻¹"}, {"measurement": "rate constant (kobs) for decomposition", "setting": "pH 5, buffer concentration 5 mM", "result": "~0.044", "unit": "day⁻¹"}, {"measurement": "rate constant (kobs) for decomposition", "setting": "pH 7, buffer concentration 5 mM", "result": "~0.55", "unit": "day⁻¹"}, {"measurement": "effect of buffer concentration on rate constant of decomposition", "setting": "pH region of about 4.5 to about 5.5, buffer concentration from 5 mM to 20 mM", "result": "no noticeable differences in rate constant"}]}
